According to patent US10519148B2, “Acrylic acid derivative, preparation method and use in medicine thereof” (Zhejiang Hisun Pharmaceutical Co., Ltd., priority 2015, dated 2019):

Key:
[1] = target: T1, recombinant human estrogen receptor ERα ligand binding domain (Homo sapiens, UniProt P03372); test: LanthaScreen TR-FRET competition binding assay with estrogen receptor ERα ligand binding domain; conditions: TR-FRET competition with Fluormone ES2, ERα-LBD (GST); read-out: IC50 (nM) ER Reporter
T1 construct: purchased Invitrogen PV4543
T1 sequence (P03372 311-547 limits assumed): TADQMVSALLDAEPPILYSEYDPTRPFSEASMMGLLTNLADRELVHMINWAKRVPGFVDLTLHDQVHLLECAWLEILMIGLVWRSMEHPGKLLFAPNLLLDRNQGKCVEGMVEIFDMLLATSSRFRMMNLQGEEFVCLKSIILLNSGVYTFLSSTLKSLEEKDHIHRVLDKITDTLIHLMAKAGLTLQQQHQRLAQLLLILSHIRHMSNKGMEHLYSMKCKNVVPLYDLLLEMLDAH
Excerpt: The present invention utilizes the Lantha Screen™ Time-resolved Fluorescence Resonance Energy Transfer (TR-FRET) to assess the ability of the compounds to bind to the isolated ligand domain of estrogen receptor Era in competition assay. The fluorophore (Fluormone ES2, product code P2645) and the recombinant human estrogen receptor ERα ligand binding domain (product code PV4543) using in the TR-FRET were purchased from Invitrogen. The design principle of this assay is as follows: the estrogen receptor ERα-LBD (GST) and the fluorophore-containing ligand form a receptor/fluorophore complex, followed by the addition of terbium (Tb)-labeled anti-GST antibody (product code PV3551), the indirect labeling of the receptor is achieved by the linkage with the GST on the receptor, and the ability of competitive coordination between the test compound and the fluorescent ligand with the receptor is evaluated by detecting the attenuation of the TR-FRET effect between the chromophore (Tb-anti-GST antibody) on the fluorescent label ERα and the fluorescent ligand (Fluormone ES2). We used the following sample preparation and test methods for the test of the synthesized compounds. The instrument we used is Beckman Coulter BioPAPTR FRD microfluidic workstation.
(1) Acoustic dispense 120 nL of the test compound into a black low volume 384 well assay plates;
(2) Preparation of 1×ERα-LBD/Tb-anti-GST antibody complex in ES2 buffer and incubation therein for 20 minutes;
(3) The 1×ES2 was further added to the above ERα-LBD/Tb-anti-GST antibody complex solution before the test;
(4) 12 μL of the ERα-LBD/Tb-anti-GST antibody complex solution prepared in step 3 was added to the wells of the assay plate;
(5) The plates were shielded from light and incubated at room temperature for one hour; (6) At 337 nm excitation light, the emission light at 490 nm and 520 nm was detected by BMG Phera STAR.
The test compounds of a series of concentrations (10 mM, 0.1 mM, 1 μM and 10 nM) prepared on a microplate were transferred to the analytical plate using Labcyte Echo 550. 120 nL of DMSO solution for each test compound was added to each well of the assay plate and tested at 12 different concentrations (100, 29.17, 10.42, 2.083, 1, 0.292, 0.104, 0.02083, 0.01, 0.0029, 0.00104, 0.001 μM). The TR-FRET primitive fluorescence data was used to obtain the fitting curve software such as Origin or Genedata. Half maximal inhibitory concentration IC50 of each compound was used to characterize the competitive binding ability of the test compound with the estrogen receptor ERα. IC50 represents the concentration of the test compound that was calculated when the coordination of the tracer fluorophore (ES2) with the estrogen receptor was reduced by 50%, and the IC50 was determined as shown in Table 3.

[2] = test system: MCF-7 carcinoma xenografts; test: Tumor growth inhibition in SCID mice bearing MCF-7 carcinoma xenografts; assay type: in vivo; conditions: for TGI (%) Day 4: Day 4, MCF-7 tumor bearing SCID mice; for TGI (%) Day 7: Day 7, MCF-7 tumor bearing SCID mice; for TGI (%) Day 11: Day 11, MCF-7 tumor bearing SCID mice; for TGI (%) Day 14: Day 14, MCF-7 tumor bearing SCID mice; for TGI (%) Day 18: Day 18, MCF-7 tumor bearing SCID mice; for TGI (%) Day 21: Day 21, MCF-7 tumor bearing SCID mice; for effect on tumor growth inhibition in human breast cancer MCF-7 bearing mice (in words): doses of 30 mg/kg and 50 mg/kg, within 21 days
Experimental: 1. Purpose of the Experiment
This test was used to evaluate the inhibitory effect of the test compounds, which were orally administered daily for 21 days, on the growth of transplanted tumor in MCF-7 tumor-bearing SCID mice.
2. Preparation of the Test Substance
Solvent: 20% PEG400, 80% deionized water;
Preparation of the test compounds: an appropriate amount of the test compounds were weighed, dissolved in PEG400 (20%), and then 80% amount of the sterilized deionized water was added, shocked evenly. The test compounds were freshly prepared daily before administration.
Varieties and strains: SCID mice, SPF, female, 7 to 9 weeks old (16 to 22 grams), 100 mice, purchased from Beijing Huafu kang Biotechnology Co., Ltd., 100 mice with good health were used for the experiment, with the environment adaption time of 5 to 7 days.
4. MCF-7 Tumor Cell Culture
MCF-7 cells were cultured in RPMI1640 medium containing 10% fetal bovine serum, cultured in 37° C., 5% CO2 incubator. Cells in logarithmic phase were taken before inoculating, digested with 0.25% trypsin, and then the cells were washed with PBS, resuspended in medium without serum and counted. The cell concentration was adjusted to 7.5×10^7 cells/mL (1:1 Matrigel, Extracellular Matrix Proteins, 356234, BD).
5. Animal Inoculation and Grouping
Each mouse was inoculated subcutaneously in the right axilla with 0.2 mL cell suspension (1.5×10^7 cells/mouse) under aseptic conditions. Estrogen was administrated subcutaneously after inoculation. When the tumor grows to volume of about 150-250 mm^3, the mice with similar tumor volume and good tumor shape were selected (shape to be a single spherical as much as possible, no irregular shape or multiple tumors together), 10 mice per group.
6. Animal Administration and Observation
The formation of tumor in the inoculated part of each group of animals was observed. The long diameter (Y) and the short diameter (X) of the tumor nodules were measured with a vernier caliper twice a week and calculated according to the following formula: The volume of tumor nodules (V): V=(X^2Y)/2.
Evaluation index of antitumor activity: tumor growth inhibition rate TGI (%), relative tumor proliferation rate T/C (%). • Tumor growth inhibition rate TGI (%): TGI (%)=(Vc−Vt)/Vc×100. Where Vc is the tumor volume of the model control group and Vt is the tumor volume of the compound group.
Relative tumor volume (RTV): RTV=Vn/V0. Where V0 is the tumor volume just before the first time administered, and Vn is the tumor volume at the time of measurement.
Relative tumor proliferation rate: T/C (%): T/C (%)=TRTV/CRTV×100. Where, TRTV was RTV of the treatment group and CRTV was RTV of negative control group.

Row | Compound | IC50 [1] [nM] | TGI (%) Day 4 ([2]; 30 mg/kg po qd) [%] | TGI (%) Day 7 ([2]; 30 mg/kg po qd) [%] | TGI (%) Day 11 ([2]; 30 mg/kg po qd) [%] | TGI (%) Day 14 ([2]; 30 mg/kg po qd) [%] | TGI (%) Day 18 ([2]; 30 mg/kg po qd) [%] | TGI (%) Day 21 ([2]; 30 mg/kg po qd) [%] | TGI (%) Day 4 ([2]; 50 mg/kg po qd) [%] | TGI (%) Day 7 ([2]; 50 mg/kg po qd) [%] | TGI (%) Day 11 ([2]; 50 mg/kg po qd) [%] | TGI (%) Day 14 ([2]; 50 mg/kg po qd) [%] | TGI (%) Day 18 ([2]; 50 mg/kg po qd) [%] | TGI (%) Day 21 ([2]; 50 mg/kg po qd) [%] | effect on tumor growth inhibition in human breast cancer MCF-7 bearing mice (in words) [2]
1 | C[C@@H]1Cc2c([nH]c3cccc(F)c23)[C@@H](c2c(F)cc(/C=C/C(=O)O)cc2F)N1CC1(F)CC1 [Example 12, (E)-3-(3,5-difluoro-4-((1R,3R)-5-fluoro-2-((1-fluorocyclopropyl)methyl)-3-methyl-2,3,4,9-tetrahydro-1H-pyrido[3,4-b]indol-1-yl)phenyl)acrylic acid] | 0.1 to 10 | 12.1 | 25.9 | 41.5 | 53.6 | 62.0 | 73.4 | 12.4 | 25.4 | 43.8 | 59.6 | 69.8 | 79.4 | significant effect on tumor growth inhibition
2 | C[C@@H]1Cc2c([nH]c3ccccc23)[C@@H](c2c(F)cc(/C=C/C(=O)O)cc2F)N1CC1(F)CC1 [Example 1, (E)-3-(3,5-difluoro-4-((1R,3R)-2-((1-fluorocyclopropyl)methyl)-3-methyl-2,3,4,9-tetrahydro-1H-pyrido[3,4-b]indol-1-yl)phenyl)acrylic acid] | 0.1 to 10 | 12.3 | 24.4 | 34.5 | 52.7 | 65.7 | 76.7 | 16.9 | 26.5 | 38.8 | 54.2 | 66.9 | 78.8 | significant effect on tumor growth inhibition
